biological target: T1, Progesterone receptor (PR) (Homo sapiens, UniProt P06401); experiment: In vitro functional assay for progesterone receptor (PR) antagonists: inhibition of progesterone-induced alkaline phosphatase expression in T47D cells; type: cell-based; settings: antagonist format; T47D human mammary carcinoma cells; alkaline phosphatase inhibition vs 5 nM progesterone
T1 construct: endogenous in cells; host or cells: T47D human breast mammary carcinoma cells
T1 sequence (P06401 1-933): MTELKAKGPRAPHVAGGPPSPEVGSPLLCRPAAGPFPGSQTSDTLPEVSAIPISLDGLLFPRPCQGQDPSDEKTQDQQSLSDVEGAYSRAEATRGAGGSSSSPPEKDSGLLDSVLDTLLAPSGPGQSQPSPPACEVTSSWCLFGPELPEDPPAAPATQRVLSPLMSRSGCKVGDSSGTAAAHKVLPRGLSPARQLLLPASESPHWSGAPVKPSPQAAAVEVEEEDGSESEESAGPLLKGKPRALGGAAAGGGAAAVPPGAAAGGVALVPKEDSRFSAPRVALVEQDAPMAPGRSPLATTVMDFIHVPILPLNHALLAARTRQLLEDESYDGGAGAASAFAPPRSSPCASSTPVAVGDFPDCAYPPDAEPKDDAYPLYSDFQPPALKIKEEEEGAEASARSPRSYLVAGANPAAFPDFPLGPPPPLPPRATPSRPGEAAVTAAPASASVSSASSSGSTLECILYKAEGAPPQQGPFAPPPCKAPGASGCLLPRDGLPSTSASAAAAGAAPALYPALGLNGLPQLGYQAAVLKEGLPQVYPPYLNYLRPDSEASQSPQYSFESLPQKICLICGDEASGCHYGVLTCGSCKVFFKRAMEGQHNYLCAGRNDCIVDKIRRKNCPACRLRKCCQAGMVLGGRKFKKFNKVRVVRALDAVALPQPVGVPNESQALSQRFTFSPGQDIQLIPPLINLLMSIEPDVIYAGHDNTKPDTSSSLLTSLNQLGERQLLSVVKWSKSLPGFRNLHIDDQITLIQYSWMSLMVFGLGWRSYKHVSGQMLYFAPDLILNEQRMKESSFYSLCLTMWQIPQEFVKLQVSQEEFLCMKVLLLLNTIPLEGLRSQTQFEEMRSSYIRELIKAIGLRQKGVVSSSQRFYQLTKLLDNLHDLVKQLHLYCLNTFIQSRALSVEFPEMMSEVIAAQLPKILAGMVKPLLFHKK
Text: 1.0 In Vitro Functional Assay for Progesterone Receptor (PR) Antagonists, Agonists and Modulators
The assay for PR antagonism takes advantage of the extensively reported modulation of alkaline phosphatase (AP) expression in human breast T47D mammary carcinoma cells {Beck, et al., D. P. (1993). The progesterone antagonist RU486 acquires agonist activity upon stimulation of cAMP signalling pathways. Proc Natl Acad Sci U S A 90, 4441-4445; Fensome, et al. (2002). New progesterone receptor antagonists: 3,3-disubstituted-5-aryloxindoles. Bioorg. Med. Chem. Lett., 12, 3487-3490; Zhang et al., (2002a). 6-Aryl-1,4-dihydro-benzo d 1,3 oxazin-2-ones: a novel class of potent, selective, and orally active nonsteroidal progesterone receptor antagonists. J. Med. Chem., 45, 4379-4382; Zhang et al., (2003). Novel 6-aryl-1,4-dihydrobenzo d oxazine-2-thiones as potent, selective, and orally active nonsteroidal progesterone receptor agonists. Bioorg. Med. Chem. Lett., 13, 1313-1316; Zhang et al., (2002b). Potent nonsteroidal progesterone receptor agonists: synthesis and SAR study of 6-aryl benzoxazines. Bioorg. Med. Chem. Lett., 12, 787-790; Zhang, Z. et al., (2000). In vitro characterization of trimegestone: a new potent and selective progestin. Steroids 65, 637-643.}. […] In the absence of progesterone any agonist activity is also observed as an induction of AP activity. By running the assay in two formats (± progesterone (P4)), compounds behaving as PR antagonists, agonists, partial agonists or modulators with mixed agonist/antagonist activity can be identified.
Briefly, T47D cells are grown by propagating in DMEM with phenol red+10% FCS+2 mM Glutamine at 37° C./5% CO2. At 70-80% confluence, the media is exchanged for phenol red free DMEM+5% CS-FCS (Assay media). Cells are incubated overnight in assay media then harvested and frozen in assay media containing 10% DMSO at 1.5e7 cells/mL in 2 mL aliquots using a Planer and immediately stored in liquid nitrogen. V1als are removed from liquid nitrogen storage and immediately thawed in a water bath at 37° C. The cell suspension is added dropwise to 20 mL of assay media, then the tube centrifuged at 1000 rpm for 4 minutes, the supernatant is discarded and the pellet re-suspended in 20 mL assay media. T47D cells are then plated at 8750 cells/well in 35 μL assay media in sufficient white solid 384 well TC plates for the assay. For the agonist format assay a further 10 μL of assay media is added to each well. These plates are then cultured for 3-6 hours at 37° C./5% CO2 before compound addition.
Compounds are prepared by in 100% DMSO, half log concentrations from 4 mM in 384 well plates 5 μL/well (referred to here as ‘grandmother plates’). Progesterone is 100 μM made up in ethanol and PBS (i.e. add 1 mL ethanol to progesterone initially to help dissolving) and stored in 0.5-1 mL aliquots at −20° C.
Using a multidrop (Thermolabsystems), 60 μL/well of buffer is added to a 384 well plate—this will be the ‘mother plate’. Add 45 μLwell buffer to grandmother plate using the multidrop (=400 μM 10% DMSO dilution). Mixed and spun to remove air bubbles.
20 μL is taken from the grandmother plate (400 μM 10% DMSO) and added to the mother plate (=100 μM 2.5% DMSO). Mixed and spun to remove air bubbles
The PlateMate Plus was used to add 5 μL MAX/MIN to cell plates
Then 5 μL compounds are added from the mother plate(after removing max/min Platemate tips: columns 1 and 24)
25 nM progesterone in assay media is prepared from 100 μM stock (12.5 μL progesterone/50 mL media), from which 10 μL per well is transferred to the assay plate using the Platemate Plus (already containing cells & compound).
The cell plates are incubated @ 37° C., 5% CO2 overnight (at least 16 hours). […]

IC50 [nM]	SMILES
13.8	Cc1cc(Oc2c(C3CC3)nn(C3CCS(=O)(=O)C3)c2C2CC2)cc(C)c1C#N (racemic) [Example 7, rac-4-[3,5-Dicyclopropyl-1-(1,1-dioxo-tetrahydro-1λ^6-thiophen-3-yl)-1H-pyrazol-4-yloxy]-2,6-dimethyl-benzonitrile]
33.8	Cc1cc(Oc2c(C3CC3)nn(C3CCS(=O)(=O)C3)c2C2CC2)cc(C)c1C#N (single isomer, unassigned) [Example 8, 4-[3,5-Dicyclopropyl-1-(1,1-dioxo-tetrahydro-1λ^6-thiophen-3-yl)-1H-pyrazol-4-yloxy]-2,6-dimethyl-benzonitrile]
25.9	Cc1cc(Oc2c(C3CC3)nn(C3CCS(=O)(=O)C3)c2C2CC2)cc(C)c1C#N (single isomer, unassigned) [Example 9, 4-[3,5-Dicyclopropyl-1-(1,1-dioxo-tetrahydro-1λ^6*-thiophen-3-yl)-1H-pyrazol-4-yloxy]-2,6-dimethyl-benzonitrile]
14.7	Cc1cc(Oc2c(C3CC3)nn(C3CS(=O)(=O)C3)c2C2CC2)cc(C)c1C#N [Example 2, 4-[3,5-Dicyclopropyl-1-(1,1-dioxo-thietan-3-yl)-1H-pyrazol-4-yloxy]-2,6-dimethyl-benzonitrile]
91.3	Cc1cc(Oc2c(C3CC3)nn(C3CCS(=O)(=O)CC3)c2C2CC2)cc(C)c1C#N [Example 5, 4-[3,5-Dicyclopropyl-1-(1,1-dioxo-hexahydro-1 λ^6-thiopyran-4-yl)-1H-pyrazol-4-yloxy]-2,6-dimethyl-benzonitrile]

More lines, now with the values behind:

SMILES	IC50 [nM]
Cc1cc(Oc2c(C)nn(C3CCS(=O)(=O)C3)c2C2CCC2)cc(C)c1C#N (racemic) [Example 12, rac-4-[5-Cyclobutyl-1-(1,1-dioxo-tetrahydro-1λ^6-thiophen-3-yl)-3-methyl-1H-pyrazol-4-yloxy]-2,6-dimethyl-benzonitrile]	1490
Cc1cc(Oc2c(C3CCC3)nn(C3CCS(=O)(=O)C3)c2C)cc(C)c1C#N (racemic) [Example 13, rac-4-[3-Cyclobutyl-1-(1,1-dioxo-tetrahydro-1λ^6-thiophen-3-yl)-5-methyl-1H-pyrazol-4-yloxy]-2,6-dimethyl-benzonitrile]	202
Cc1cc(Oc2c(C)nn(C3CCS(=O)(=O)C3)c2C2CC2)cc(C)c1C#N (racemic) [Example 14, rac-4-[5-Cyclopropyl-1-(1,1-dioxo-tetrahydro-1λ^6-thiophen-3-yl)-3-methyl-1H-pyrazol-4-yloxy]-2,6-dimethyl-benzonitrile]	133
Cc1cc(Oc2c(C3CC3)nn(C3COC3)c2C2CC2)cc(C)c1C#N [Example 1, 4-(3,5-Dicyclopropyl-1-oxetan-3-yl-1H-pyrazol-4-yloxy)-2,6-dimethyl-benzonitrile]	82.6
Cc1cc(Oc2c(C3CC3)nn(C3CCOC3)c2C2CC2)cc(C)c1C#N (stereo not drawn) [Example 3, 4-[3,5-Dicyclopropyl-1-(tetrahydro-furan-3-yl)-1 H-pyrazol-4-yloxy]-2,6-dimethyl-benzonitrile]	67.4
Cc1cc(Oc2c(C3CC3)nn(C3CCOCC3)c2C2CC2)cc(C)c1C#N [Example 6, 4-[3,5-Dicyclopropyl-1-(tetrahydro-pyran-4-yl)-1H-pyrazol-4-yloxy]-2,6-dimethyl-benzonitrile]	56.3
Cc1cc(Oc2c(C3CC3)nn(C3CS(=O)(=O)C3)c2C)cc(C)c1C#N [Example 10, 4-(3-Cyclopropyl-5-methyl-1-(1,1-dioxo-thietan-3-yl)-1H-pyrazol-4-yloxy)-2,6-dimethyl-benzonitrile]	27.6
Cc1cc(Oc2c(C)nn(C3CS(=O)(=O)C3)c2C2CC2)cc(C)c1C#N [Example 11, 4-(3-Methyl-5-cyclopropyl-1-(1,1-dioxo-thietan-3-yl)-1H-pyrazol-4-yloxy)-2,6-dimethyl-benzonitrile]	50.4
Cc1cc(Oc2c(C3CC3)nn(C3CS(=O)(=O)C3)c2Cl)cc(C)c1C#N [Example 20, 4-[5-Chloro-3-cyclopropyl-1-(1,1-dioxo-1λ^6-thietan-3-yl)-1H-pyrazol-4-yloxy]-2,6-dimethyl-benzonitrile]	22
Cc1cc(Oc2c(Cl)nn(C3CS(=O)(=O)C3)c2C2CC2)cc(C)c1C#N [Example 21, 4-[3-Chloro-5-cyclopropyl-1-(1,1-dioxo-1λ^6-thietan-3-yl)-1H-pyrazol-4-yloxy]-2,6-dimethyl-benzonitrile]	108

— patent US20080096950A1, “Compounds Useful In Therapy” (priority 2006, published 2008)
